US7157256B2, “Method for producing para-hydroxystyrene and other multifunctional aromatic compounds using two-phase extractive fermentation” (E. I. du Pont de Nemours and Company, priority 2003, dated 2007)
“And” between values parts separate entries of the source, which are not always exact repeats. Identical values can stand only once.

Legend:
Assay type in all cases: cell-based
[1] = system: E. coli TY1 (DGL430); assay: Effect of pHCA and pHS on growth and fermentation of E. coli, shake flasks
Method: This study was done using E. coli TY1 (DGL430), a tyrosine overproducing strain obtained from OmniGene Bioproducts, Inc. (Cambridge, Mass.). This strain also produces phenylalanine. The seed culture of this strain was propagated in a medium consisting of MgSO4.7H2O (0.5 g/L), (NH4)2SO4 (4 g/L), MOPS (20.9 g/L) and 10 mL of phosphate solution. The pH of the seed medium was adjusted to pH 6.8 and then the medium was steam-sterilized. The phosphate solution contained KH2PO4 (57.3 g/L) and K2HPO4 (110.2 g/L) and was adjusted to pH 6.8. The following solutions were then aseptically added to the seed medium to give the final concentration given in parentheses: thiamine (1 mg/L), glucose (1 g/L), lactose (15 g/L), 5 mL of a trace element solution, and tetracycline (5 mg/L). The trace element solution contained citric acid (10 g/L), CaCl2.2H2O (1.5 g/L), FeSO4.7H2O (5 g/L), ZnSO4.7H2O (0.39 g/L) and CuSO4.5H2O (0.38 g/L). The seed medium was inoculated from a frozen pre-seed culture and was grown in 250 mL baffled flasks in an Innova 4000 incubator shaker (New Brunswick Scientific Co., Edison, N.J.), incubated at 35° C. and 300 rpm for 12–16 h. One milliliter of this seed culture was used to inoculate each of the test cultures.
The test medium was 50 mL of an aqueous solution containing: (NH4)2SO4 (4 g), 1 mL of phosphate solution, MgSO4.7H2O (0.5 g), and MOPS (20.9 g), with the pH adjusted to 7.0. After sterilization of this medium, thiamine (1 mg/L), 5 mL of trace element solution, glucose (2 g/L), lactose (15 g/L), IPTG (0.5 mM), and tetracycline (10 mg/L) were aseptically added to give the final concentration given in parentheses. The 250 mL baffled flasks containing 50 mL of the test medium were inoculated with the seed culture and were incubated at 35° C. and 300 rpm for 42 h in the incubator shaker. Samples of the culture were taken at various times and the optical density at 550 nm (OD550) was measured spectrophotometrically. The pH of these samples was also measured. After completion of the fermentation, the tyrosine and phenylalanine concentrations in the culture were measured using HPLC, as described supra.
This experiment was repeated using pHS in place of pHCA.

[2] = system: P. putida KT2440; assay: Effect of pHCA on the growth of Pseudomonas putida KT2440; settings: pHCA 25 g/L
Method: (§1) Liquid cultures of these strains were grown in 10 mL of LB medium containing 0.25% glucose and 10 mM MgSO4 in 50 mL screw-capped, glass tubes at 30° C. and 200 rpm in an incubator shaker. In all subsequent media, pHCA was added from a 60 g/L stock solution, which was adjusted to pH 7.0 using KOH and then filter-sterilized. Samples of each culture were streaked on LB agar plates containing 0.25% glucose, 10 mM MgSO4 and 30 g/L pHCA and grown at 30° C. Individual colonies taken from these plates were grown to stationary phase at 30° C. in 10 mL of LB medium containing 0.5% glucose, 10 mM MgSO4 and 25 g/L pHCA in 50 mL screw-capped, glass tubes. These stationary phase cultures were diluted 1:25 in fresh LB medium containing 0.5% glucose, 10 mM MgSO4 and either 0 or 25 g/L pHCA and grown in 50 mL screw-capped, glass tubes at 30° C. and 200 rpm in an incubator shaker. Cell growth in these cultures was monitored by taking aliquots and measuring the OD at 600 nm of the culture or dilutions of the culture, which were made with LB medium. These OD measurements were used to calculate the doubling time and growth rate as a percentage of growth observed in test medium without pHCA.

[3] = system: P. putida NCIMB 9866; assay: Effect of pHCA on the growth of Pseudomonas putida NCIMB 9866; settings: pHCA 25 g/L
Method: as §1

[4] = adapted cells, LB medium, 30° C.
[5] = percentage of growth without pHCA

O=C(O)C=Cc1ccc(O)cc1 [pHCA, para-hydroxycinnamic acid]
OD 550 ([1]; 17.5 h, pHCA added 1.00 g/L (as sodium pHCA)): 2.47 and 2.41 | OD 550 ([1]; 17.5 h, pHCA added 2.00 g/L): 1.49 and 1.27 | OD 550 ([1]; 17.5 h, pHCA added 4.00 g/L): 0.20 and 0.22 | OD 550 ([1]; 17.5 h, pHCA added 8.00 g/L): 0.15 | OD 550 ([1]; 17.5 h, pHCA added 16.00 g/L): 0.19 and 0.13 | OD 550 ([1]; 29 h, pHCA added 1.00 g/L): 3.22 and 3.57 | OD 550 ([1]; 29 h, pHCA added 2.00 g/L): 1.77 and 1.47 | OD 550 ([1]; 29 h, pHCA added 4.00 g/L): 1.21 and 1.61 | OD 550 ([1]; 29 h, pHCA added 8.00 g/L): 0.16 | OD 550 ([1]; 29 h, pHCA added 16.00 g/L): 0.21 and 0.13 | OD 550 ([1]; 42 h, pHCA added 1.00 g/L): 3.37 and 3.48 | OD 550 ([1]; 42 h, pHCA added 2.00 g/L): 1.62 and 1.53 | Phe ([1]; 42 h, pHCA added 2.00 g/L): 95 mg/L | Tyr ([1]; 42 h, pHCA added 2.00 g/L): 100 mg/L and 105 mg/L | OD 550 ([1]; 42 h, pHCA added 4.00 g/L): 1.54 and 1.55 | Phe ([1]; 42 h, pHCA added 4.00 g/L): 15 mg/L and 20 mg/L | Tyr ([1]; 42 h, pHCA added 4.00 g/L): 65 mg/L and 75 mg/L | OD 550 ([1]; 42 h, pHCA added 8.00 g/L): 0.18 and 0.17 | Phe ([1]; 42 h, pHCA added 8.00 g/L): 10 mg/L | Tyr ([1]; 42 h, pHCA added 8.00 g/L): 15 mg/L and 25 mg/L | OD 550 ([1]; 42 h, pHCA added 16.00 g/L): 0.23 and 0.14 | Phe ([1]; 42 h, pHCA added 16.00 g/L): 5 mg/L | Tyr ([1]; 42 h, pHCA added 16.00 g/L): 0 mg/L | Phe ([1]; 42 h, phenylalanine in culture, pHCA added 1.00 g/L): 150 mg/L and 155 mg/L | Tyr ([1]; 42 h, tyrosine in culture, pHCA added 1.00 g/L): 210 mg/L and 190 mg/L | concentration at which complete inhibition of growth / no growth was observed ([1]; E. coli TY1 shake flask): 8 g/L | concentration that inhibited cell growth ([1]; E. coli TY1 shake flask): 1 g/L | Doubling Time [2, 4]: 79 min | Growth Rate, % [2, 5]: 21% | Doubling Time [3, 4]: 105 min | Growth Rate, % [3, 5]: 18%
